Here are results for 12 molecules from patent US9914736B2, “TrKA kinase inhibitors, compositions and methods thereof” (Merck Sharp & Dohme Corp., priority 2014, dated 2018).

The assay has as its target human TrkA receptor (Homo sapiens (Human), UniProt P04629). As to the kind of experiment: DiscoverX PathHunter TrkA functional assay. Type of assay: cell-based. The settings on record: U2OS cells expressing human TrkA-ProLink, Shc1-EA and p75NTR; compound 1 h, then NGF at ~80% of maximal response for 3 h; luminescence.

Sequence of human TrkA receptor (P04629 33-796): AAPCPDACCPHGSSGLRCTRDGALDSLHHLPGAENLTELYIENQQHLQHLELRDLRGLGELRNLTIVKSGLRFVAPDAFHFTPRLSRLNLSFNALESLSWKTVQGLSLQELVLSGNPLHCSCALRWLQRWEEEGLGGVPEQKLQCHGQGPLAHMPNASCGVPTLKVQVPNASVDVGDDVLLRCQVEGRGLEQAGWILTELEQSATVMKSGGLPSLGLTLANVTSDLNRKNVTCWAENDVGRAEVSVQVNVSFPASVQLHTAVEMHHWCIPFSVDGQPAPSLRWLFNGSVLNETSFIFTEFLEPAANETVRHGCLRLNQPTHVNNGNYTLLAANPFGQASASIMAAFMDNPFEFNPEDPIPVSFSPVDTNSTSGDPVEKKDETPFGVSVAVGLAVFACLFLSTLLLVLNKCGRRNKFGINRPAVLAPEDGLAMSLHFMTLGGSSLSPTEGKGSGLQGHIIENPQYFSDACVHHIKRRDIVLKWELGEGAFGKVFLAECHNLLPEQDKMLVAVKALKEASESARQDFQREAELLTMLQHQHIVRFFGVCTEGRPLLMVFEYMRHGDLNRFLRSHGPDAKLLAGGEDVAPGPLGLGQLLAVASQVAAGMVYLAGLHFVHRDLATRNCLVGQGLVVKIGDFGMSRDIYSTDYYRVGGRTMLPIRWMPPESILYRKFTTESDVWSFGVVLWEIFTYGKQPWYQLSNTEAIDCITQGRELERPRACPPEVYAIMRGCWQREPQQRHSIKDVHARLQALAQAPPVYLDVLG

Turning to `CC(O)c1cc(NC(=O)c2cc(-c3ncccn3)c(C(F)(F)F)cc2F)n(-c2ccc(F)cc2)n1` (single isomer, unassigned) [Compound 99, (S or R)-2-fluoro-N-(1-(4-fluorophenyl)-3-(1-hydroxyethyl)-1H-pyrazol-5-yl)-5-(pyrimidin-2-yl)-4-(trifluoromethyl)benzamide], the IC50 is 0.016 µM.
As for `CC(O)c1ccc(-c2cc(NC(=O)c3cc(-c4ncccn4)c(C(F)(F)F)cc3F)n(-c3ccc(F)cc3)n2)nc1` (single isomer, unassigned) [Compound 100, (S or R)-2-fluoro-N-(1-(4-fluorophenyl)-3-(5-(1-hydroxyethyl)pyridin-2-yl)-1H-pyrazol-5-yl)-5-(pyrimidin-2-yl)-4-(trifluoromethyl)benzamide], inhibition was half-maximal at 0.012 µM (IC50).
Take `CC(O)c1cnc(-c2cc(NC(=O)c3cc(-c4ccn(C)n4)c(C(F)(F)F)cc3F)n(-c3ccc(F)cc3)n2)nc1` (single isomer, unassigned) [Compound 107, (S or R)-2-fluoro-N-(1-(4-fluorophenyl)-3-(5-(1-hydroxyethyl)pyrimidin-2-yl)-1H-pyrazol-5-yl)-5-(1-methyl-1H-pyrazol-3-yl)-4-(trifluoromethyl)benzamide]: the IC50 was 0.001 µM.
Then `Cc1nc(-c2ccccc2)c(NC(=O)c2ccc(C(F)(F)F)cc2F)s1` [Compound 1, 2-fluoro-N-(2-methyl-4-phenyl-1,3-thiazol-5-yl)-4-(trifluoromethyl)benzamide], with 0.78 µM; and `O=C(NC1CC1)c1cc(NC(=O)c2ccc(C(F)(F)F)cc2Cl)n(-c2ccccc2)n1` [Compound 2, 5-({[2-chloro-4-(trifluoromethyl)phenyl]carbonyl}amino)-N-cyclopropyl-1-phenyl-1H-pyrazole-3-carboxamide], with 0.06 µM; and `Cc1csc(-c2cc(C(=O)Nc3cc(C)nn3-c3ccccc3)ccc2C(F)(F)F)n1` [Compound 3, N-(3-methyl-1-phenyl-1H-pyrazol-5-yl)-3-(4-methyl-1,3-thiazol-2-yl)-4-(trifluoromethyl)benzamide], with 0.0054 µM.
The molecule `NC(=O)c1ccc(-c2cc(NC(=O)c3ccc(C(F)(F)F)cc3Cl)n(-c3ccccc3)n2)nc1` [Compound 4, 6-[5-({[2-chloro-4-(trifluoromethyl)phenyl]carbonyl}amino)-1-phenyl-1H-pyrazol-3-yl]pyridine-3-carboxamide] gave an IC50 of 0.048 µM.
Then `Cc1csc(-c2cc(C(=O)Nc3cc(-c4cnn(C)c4)nn3-c3cc(C)[nH]n3)ccc2C(F)(F)F)n1` [Compound 5, N-(1″,5-dimethyl-1H,1″H-3,1′:3′,4″-terpyrazol-5′-yl)-3-(4-methyl-1,3-thiazol-2-yl)-4-(trifluoromethyl)benzamide], with 0.00085 µM; and `Cc1csc(-c2cc(C(=O)Nc3cc(-c4ccccn4)nn3-c3cc(C)[nH]n3)ccc2C(F)(F)F)n1` [Compound 6, N-(5′-methyl-3-pyridin-2-yl-1′H-1,3′-bipyrazol-5-yl)-3-(4-methyl-1,3-thiazol-2-yl)-4-(trifluoromethyl)benzamide], with 0.0017 µM; and `Cc1cc(-n2nc(C(=O)N(C)C)cc2NC(=O)c2ccc(C(F)(F)F)c(-c3ccn(C)n3)c2)[nH]n1` [Compound 7, N,N,5′-trimethyl-5-({[3-(1-methyl-1H-pyrazol-3-yl)-4-(trifluoromethyl)phenyl]carbonyl}amino)-2′H-1,3′-bipyrazole-3-carboxamide], with 0.032 µM.
Turning to `Cc1cc(-n2nc(-c3cnn(C)c3)cc2NC(=O)c2ccc(C(F)(F)F)c(-c3cccnc3)c2)n[nH]1` [Compound 8, N-(1″,5-dimethyl-1H,1″H-3,1′:3′,4″-terpyrazol-5′-yl)-3-pyridin-3-yl-4-(trifluoromethyl)benzamide], the half-maximal inhibitory concentration (IC50) worked out at 2.1 µM.
Then `Cn1ccc(-c2cc(C(=O)Nc3cc(-c4ccncc4)nn3-c3ccc(F)c(F)c3)ccc2C(F)(F)F)n1` [Compound 9, N-[1-(3,4-difluorophenyl)-3-pyridin-4-yl-1H-pyrazol-5-yl]-3-(1-methyl-1H-pyrazol-3-yl)-4-(trifluoromethyl)benzamide], with 0.0097 µM.
